Laboratory results published in the NIST ThermoML archive (doi:10.1021/je700020t).
± gives the expanded uncertainty stated by the source.

Conditions: 101.33 kPa, Liquid

Row | SMILES | mass density (253.15 K) [kg/m3] | mass density (263.15 K) [kg/m3] | mass density (273.15 K) [kg/m3] | mass density (283.15 K) [kg/m3] | mass density (293.15 K) [kg/m3] | mass density (298.15 K) [kg/m3] | mass density (323.15 K) [kg/m3] | mass density (343.15 K) [kg/m3] | mass density (363.15 K) [kg/m3] | mass density (383.15 K) [kg/m3] | mass density (324.15 K) [kg/m3] | mass density (358.15 K) [kg/m3]
1 | CCCCI [1-iodobutane] | 1670.9 ± 3.3 | 1655.2 ± 3.2 | 1639.1 ± 3.1 | 1623.7 ± 3 | 1607.6 ± 2.9 | 1599.8 ± 2.9 | 1558.7 ± 2.9 | 1525.7 ± 2.9 | 1492 ± 2.9 | 1457.2 ± 2.9 |  | 
2 | CCCI [1-iodopropane] | 1820.9 ± 1.8 | 1802.5 ± 1.7 | 1784.5 ± 1.7 | 1765.9 ± 1.6 | 1747.8 ± 1.5 |  |  | 1652.2 ± 1.6 |  |  | 1688.3 ± 1.6 | 1622.3 ± 1.7
